Tests used:
[1] = target: Recombinant human c-Cbl (aa 47-435) (Homo sapiens (Human), UniProt P22681); test: c-Cbl Biochemical Assay (TR-FRET)
Procedure, shortened: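 Biotinylated c-Cbl (6 nM) preincubated 30 min RT with compound, then reacted 60-90 min with Src-Zap70 (2.5-10 nM) and 0.5 mM ATP, pH 7.0 HEPES buffer. Stopped with EDTA; 100 nM Bodipy-ubiquitinated UBE2D2 binding read by TR-FRET after 60 min; IC50 from 4-parameter fit.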

[2] = target: Recombinant human Cbl-b (aa 36-427) (Homo sapiens (Human), UniProt Q13191); test: Cbl-b Biochemical Assay (TR-FRET); conditions: read-out: TR-FRET hCbl-b IC50
Procedure, shortened: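 Two-step TR-FRET: 6 nM biotinylated Cbl-b preincubated 30-60 min with compound, then 60 min at RT with 1-2.5 nM Src-Zap70 and 0.5 mM ATP in HEPES pH 7.0 buffer, 1% DMSO. Stopped with 5 mM EDTA plus 100 nM UBE2D2-Ub-FL-BODIPY and 1 nM streptavidin-Tb, 60 min; 520 nm signal; IC50 from 4-parameter fit.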

Sequence of Recombinant human c-Cbl (aa 47-435) (P22681 47-435): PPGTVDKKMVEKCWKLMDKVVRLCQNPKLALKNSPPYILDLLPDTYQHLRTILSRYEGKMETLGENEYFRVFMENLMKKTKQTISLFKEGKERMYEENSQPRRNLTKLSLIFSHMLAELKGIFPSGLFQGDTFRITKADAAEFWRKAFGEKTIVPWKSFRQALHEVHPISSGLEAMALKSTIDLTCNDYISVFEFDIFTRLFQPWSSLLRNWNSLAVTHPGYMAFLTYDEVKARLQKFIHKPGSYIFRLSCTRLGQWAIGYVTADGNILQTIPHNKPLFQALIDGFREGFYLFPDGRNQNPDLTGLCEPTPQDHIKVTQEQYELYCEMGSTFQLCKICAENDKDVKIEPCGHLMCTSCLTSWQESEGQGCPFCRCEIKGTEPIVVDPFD
Sequence of Recombinant human Cbl-b (aa 36-427) (Q13191 36-427): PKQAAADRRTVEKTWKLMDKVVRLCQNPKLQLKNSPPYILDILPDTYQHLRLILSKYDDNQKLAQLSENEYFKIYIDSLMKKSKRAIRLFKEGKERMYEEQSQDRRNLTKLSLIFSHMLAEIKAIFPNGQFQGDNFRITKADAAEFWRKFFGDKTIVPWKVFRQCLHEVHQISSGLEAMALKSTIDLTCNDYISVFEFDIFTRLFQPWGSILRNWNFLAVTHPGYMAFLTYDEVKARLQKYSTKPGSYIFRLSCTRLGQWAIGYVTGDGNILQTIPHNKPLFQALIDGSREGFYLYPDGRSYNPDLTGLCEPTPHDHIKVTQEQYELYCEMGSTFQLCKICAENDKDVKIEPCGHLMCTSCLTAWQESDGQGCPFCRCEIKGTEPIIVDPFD

SMILES	IC50 [1]	IC50 [2]
CCOc1cc(-c2ccc(F)cc2-c2nncn2C)cc(N2Cc3c(OC)cc(CNCC4(O)CCC4)cc3C2=O)n1 [AIJ-2, 2-{6-Ethoxy-4-[4-fluoro-2-(4-methyl-1,2,4-triazol-3-yl)phenyl]pyridin-2-yl}-6-({[(1-hydroxycyclobutyl)methyl]amino}methyl)-4-methoxy-3H-isoindol-1-one]	≤ 200 nM	≤ 200 nM
CO[C@@H](C)CNCc1cc(F)c2c(c1)C(=O)N(c1cc(-c3ccc(C#N)cc3-c3nncn3C)cc(C3CC3)n1)C2 [AKW-1, 4-{2-Cyclopropyl-6-[4-fluoro-6-({[(2S)-2-methoxypropyl]amino}methyl)-1-oxo-3H-isoindol-2-yl]pyridin-4-yl}-3-(4-methyl-1,2,4-triazol-3-yl)benzonitrile]	≤ 200 nM	≤ 200 nM
COC(C)(C)CNCc1ccc2c(c1)C(=O)N(c1cc(-c3ccc(C#N)cc3-c3nncn3C)cc(C3CC3)n1)C2 [AIW-2, 4-[2-Cyclopropyl-6-(6-{[(2-methoxy-2-methylpropyl)amino]methyl}-1-oxo-3H-isoindol-2-yl)pyridin-4-yl]-3-(4-methyl-1,2,4-triazol-3-yl)benzonitrile]	≤ 200 nM	≤ 200 nM
COC[C@@H](C)NCc1cc(F)c2c(c1)C(=O)N(c1cc(-c3ccc(C#N)cc3-c3nncn3C)cc(C3CC3)n1)C2 [AKH-1, 4-{2-Cyclopropyl-6-[4-fluoro-6-({[(2R)-1-methoxypropan-2-yl]amino}methyl)-1-oxo-3H-isoindol-2-yl]pyridin-4-yl}-3-(4-methyl-1,2,4-triazol-3-yl)benzonitrile]	≤ 200 nM	≤ 200 nM
Cn1cnnc1-c1cc(C#N)ccc1-c1cc(C2CC2)nc(N2Cc3ccc(CNC4CCC4)cc3C2=O)c1 [ANI-2, 4-(2-{6-[(Cyclobutylamino)methyl]-1-oxo-3H-isoindol-2-yl}-6-cyclopropylpyridin-4-yl)-3-(4-methyl-1,2,4-triazol-3-yl)benzonitrile]	≤ 200 nM	≤ 200 nM
COCCN(C)Cc1cc2c(c(F)c1F)CN(c1cc(-c3ccc(C#N)cc3-c3nncn3C)cc(C3CC3)n1)C2=O [AMZ-3, 4-[2-Cyclopropyl-6-(4,5-difluoro-6-{[(2-methoxyethyl)(methyl)amino]methyl}-1-oxo-3H-isoindol-2-yl)pyridin-4-yl]-3-(4-methyl-1,2,4-triazol-3-yl)benzonitrile]	≤ 200 nM	≤ 200 nM
Cn1cnnc1-c1cc(C#N)ccc1-c1cc(C2CC2)nc(N2Cc3c(F)cc(CN4CC[C@H]5COC[C@@H]54)cc3C2=O)c1 (stereo in doubt) [AOT-2, 4-(2-Cyclopropyl-6-(4-fluoro-6-((hexahydro-1H-furo[3,4-b]pyrrol-1-yl)methyl)-1-oxoisoindolin-2-yl)pyridin-4-yl)-3-(4-methyl-4H-1,2,4-triazol-3-yl)benzonitrile]	≤ 200 nM	≤ 200 nM
C[C@@H](NCC1COC1)c1ccc2c(c1)C(=O)N(c1cc(-c3ccc(C#N)cc3-c3nncn3C)cc(C3CC3)n1)C2 [ANN-2, (R)-4-(2-Cyclopropyl-6-(6-(1-((oxetan-3-ylmethyl)amino)ethyl)-1-oxoisoindolin-2-yl)pyridin-4-yl)-3-(4-methyl-4H-1,2,4-triazol-3-yl)benzonitrile]	≤ 200 nM	≤ 200 nM
CN(Cc1ccc2c(c1)C(=O)N(c1cc(-c3ccc(F)cc3-c3nncn3C)cc(C3CC3)n1)C2)CC(C)(C)O [AMM-1, 2-{6-Cyclopropyl-4-[4-fluoro-2-(4-methyl-1,2,4-triazol-3-yl)phenyl]pyridin-2-yl}-6-{[(2-hydroxy-2-methylpropyl)(methyl)amino]methyl}-3H-isoindol-1-one]	≤ 200 nM	≤ 200 nM
CN(Cc1cc2c(c(C(F)(F)F)c1)CN(c1cc(-c3c(-c4nncn4C)cnn3C)cc(C3CC3)n1)C2=O)CC1(O)CCC1 [AJW-1, 2-{6-Cyclopropyl-4-[2-methyl-4-(4-methyl-1,2,4-triazol-3-yl)pyrazol-3-yl]pyridin-2-yl}-6-({[(1-hydroxycyclobutyl)methyl](methyl)amino}methyl)-4-(trifluoromethyl)-3H-isoindol-1-one]	≤ 200 nM	≤ 200 nM

— patent US12325697B2 (Nimbus Clio, Inc., priority 2021, dated 2025)
